According to PubChem BioAssay (NCI):
Several values for one entry are separate records, joined by “and”; a condition that tells them apart may be missing. Identical values can stand only once.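 Values below derive from 48-hour exposures of cells grown in 96-well plates, with endpoints linearly interpolated between the two concentrations bracketing the appropriate inhibition level. At the GI50, growth is halved. TGI is the concentration that stops growth completely.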

What was measured:
Test in all cases: inhibition of tumour cell growth, NCI panel, 48 h
[1] = system: OVCAR-5 ovarian
[2] = system: SN12C renal
[3] = system: ACHN renal
[4] = system: A498 renal
[5] = system: MALME-3M melanoma
[6] = system: SF-539 CNS
[7] = system: K-562 leukemia
[8] = system: U251 CNS
[9] = system: HOP-62 NSCLC
[10] = system: CAKI-1 renal

Row | SMILES | TGI [1] | TGI [2] | TGI [3] | TGI [4] [µM] | TGI [5] [µM] | TGI [6] | TGI [7] | TGI [8] | GI50 [9] [µM] | TGI [9] | GI50 [1] [µM] | GI50 [2] [µM] | GI50 [3] [µM] | GI50 [5] [nM] | GI50 [10] [µM] | TGI [10] [µM] | GI50 [6] | GI50 [7] [nM] | GI50 [8] [µM] | GI50 [4]
1 | COC(=O)CCCCCOS(=O)(=O)c1ccc(C)cc1 | > 100 µM | > 100 µM | > 100 µM | > 100 | > 100 | > 100 µM | > 100 µM | > 100 µM | – | – | – | – | – | – | – | – | – | – | – | –
2 | CCCCNC(=O)Oc1ccc(/C(=C(\C)c2ccc(OC)cc2)c2ccc(OCCN3CCCCC3)cc2)cc1 | 23.2 µM | 6.01 µM | 10.7 µM | – | 3.31 | 3.12 µM | 4.65 µM | 5.99 µM | 3.15 | 10.7 µM | 7.27 | 2.21 | 3.12 | 1740 | 1.94 | 3.92 | 1640 nM | 1490 | 2.49 | –
3 | OC(c1cc2ccccc2[nH]1)C(O)(c1cc2ccccc2[nH]1)c1cc2ccccc2[nH]1 (stereo not drawn) | 102 µM | 11.4 µM | 50.1 µM | – | 59.7 | 88.7 µM | > 245 µM | 78.4 µM | – | 48.3 µM | – | – | – | – | – | 51.9 | – | – | – | –
4 | C/C(COc1ccc2oc(-c3ccccc3)cc(=O)c2c1)=N\O | 84.7 µM | > 100 µM | > 100 µM | – | – | 5.8 µM | > 100 µM | 37.2 µM | 69.4 | > 100 µM | 22 | 24 | > 100 | – | 32.5 | > 100 | 2100 nM | 70700 | 14.4 | –
5 | N[C@@H](Cc1c[nH]c2ccccc12)C(=O)NC1CCN(Cc2c[nH]c3ccc(Cl)cc23)CC1 | 20.8 µM | 30.4 µM | 27.7 µM | – | 3.98 | 20.2 µM | 12.5 µM | 22.7 µM | 11 | 24.8 µM | 5.14 | 15.3 | 13.4 | 1860 | 17.8 | 47.4 | 5620 nM | 2720 | 10.6 | –
6 | CCCCSC1CCSc2c1ccc1ccccc21 (stereo not drawn) | > 100 µM | – | – | – | 46.9 | > 100 µM | > 100 µM | > 100 µM | – | > 100 µM | – | – | – | – | – | > 100 | – | – | – | –
7 | Clc1ccc(-c2nnc(-c3nn(-c4ccccc4)c4nc5ccccc5nc34)o2)cc1 | > 100 µM | > 100 µM | > 100 µM | – | > 100 | > 100 µM | > 100 µM | > 100 µM | – | > 100 µM | – | – | – | – | – | > 100 | – | – | – | –
8 | Cn1nc(-c2ccccc2)c2c(/C=C/c3ccc(F)cc3)onc2c1=O | – | > 100 µM | > 100 µM | – | – | > 100 µM | > 100 µM | > 100 µM | – | > 100 µM | – | – | – | – | – | 66 | – | – | – | –
9 | CO/S(=N/S(=O)(=O)c1ccccc1)c1ccccc1[N+](=O)[O-] (stereo not drawn) | > 100 µM | > 100 µM | > 100 µM | – | > 100 | > 100 µM | > 100 µM | > 100 µM | – | > 100 µM | – | – | – | – | – | > 100 | – | – | – | –
10 | C=C1C2CC(OC(C)=O)C3(C)C(c4ccoc4)OC(=O)[C@@H](O)[C@]13OC1C[C@H](OC(C)=O)C(C)(C)[C@H](C(O)C(=O)OC)[C@]12C (stereo partly drawn) | – | > 100 µM | > 100 µM | > 100 | – | > 100 µM | > 100 µM | > 100 µM | – | – | – | – | – | – | – | – | – | – | – | –
11 | O=CC1=CCCN(CCc2c[nH]c3ccccc23)C1 | 126 µM | 109 µM | 125 µM | – | 122 | 108 µM | > 393 µM | 105 µM | – | 104 µM | – | – | – | – | – | 141 | – | – | – | –
12 | Cc1ccc([N+](=O)[O-])cc1NC(=O)C(=O)Cc1nc2ccc(C(=O)c3ccccc3)cc2[nH]c1=O | – | > 100 µM | > 100 µM | – | > 100 | > 100 µM | – | – | – | > 100 µM | – | – | – | – | – | > 100 | – | – | – | –
13 | COc1nc2c(c(=O)n1C)CN(c1ccccc1)C(=O)CN2C | > 100 µM | > 100 µM | > 100 µM | – | > 100 | > 100 µM | > 100 µM | > 100 µM | > 100 | > 100 µM | > 100 | 56.4 | 49.9 | 46700 | 20.1 | > 100 | > 100000 nM | 59700 | 78.9 | –
14 | COC(=O)[C@@H](C)C[C@H](Cc1ccccc1)NC(=O)c1csc([C@@H](C[C@H](C(C)C)N(C)C(=O)[C@@H](NC(=O)[C@H]2CCCCN2C)c2ccc(F)cc2)OC(C)=O)n1 | 25 µM and > 100 µM | 22.2 µM and 19.5 µM | 25 µM and > 100 µM | > 100 | – | 0.0662 µM and 0.615 µM | 25 µM and 20.8 µM | 25 µM and > 100 µM | – | 25 µM and 40.4 µM | – | – | – | – | – | – | 21.5 nM and 60.4 nM | – | – | 21.6 nM and 127 nM
15 | COc1cc(/C=C2\C[C@H]3[C@@H]4CC=C5C[C@@H](O)CC[C@]5(C)[C@H]4CC[C@]3(C)[C@H]2O)ccc1OCCN1CCCCC1 | 2.6 µM | 1.75 µM | 1.37 µM | 31.3 | – | 2.1 µM | 1.32 µM | 3.32 µM | 0.799 | 1.68 µM | 1.03 | 0.813 | 0.706 | – | 1.74 | 3.36 | 1100 nM | 491 | 1.13 | 14300 nM
